Experimental data as given in US8497276B2, “Substituted indolo-piperidine compounds” (ArQule, Inc., priority 2009, dated 2013).
Values belong to the compound of their own block, whether it stands above or below them.

Key:
Tec kinase = target: T1, Tec kinase (Homo sapiens, UniProt P42680); assay: Tec Kinase Activity Assay; format: biochemical; conditions: 75 μM ATP, Pyk-2 substrate; compound concentration not given
T1 sequence (P42680 1-631): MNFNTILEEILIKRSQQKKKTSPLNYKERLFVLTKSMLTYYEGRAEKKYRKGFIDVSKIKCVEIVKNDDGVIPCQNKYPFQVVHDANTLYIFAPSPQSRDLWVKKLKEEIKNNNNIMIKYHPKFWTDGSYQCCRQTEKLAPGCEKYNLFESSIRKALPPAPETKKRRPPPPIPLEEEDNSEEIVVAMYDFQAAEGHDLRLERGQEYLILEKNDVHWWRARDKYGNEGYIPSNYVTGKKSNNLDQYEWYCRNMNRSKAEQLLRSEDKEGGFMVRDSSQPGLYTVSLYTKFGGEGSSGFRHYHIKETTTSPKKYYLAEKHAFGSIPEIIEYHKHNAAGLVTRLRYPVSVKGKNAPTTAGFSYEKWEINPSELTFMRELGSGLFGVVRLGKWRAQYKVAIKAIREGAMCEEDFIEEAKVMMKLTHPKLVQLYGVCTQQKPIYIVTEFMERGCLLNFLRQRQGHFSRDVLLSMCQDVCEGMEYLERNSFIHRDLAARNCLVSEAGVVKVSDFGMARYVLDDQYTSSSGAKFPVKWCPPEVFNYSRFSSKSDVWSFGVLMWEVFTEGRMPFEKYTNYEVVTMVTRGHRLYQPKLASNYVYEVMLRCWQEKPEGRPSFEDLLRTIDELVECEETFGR
Description: The disclosed compounds were assayed for their ability to inhibit the activity of Tec kinase. Nunc Maxisorb plates were coated with streptavidin by overnight incubation with 100 μl per well of 1 μg/ml Streptavidin in DPBS. Prior to the start of the experiment, the plates were washed with TBST (3×200 μl) and blocked for at least 1 hour by adding 150 μl of 5% BSA/TBST. The plates were then washed with TBST (3×200 μl/well) and left dry immediately before the capture step.
The disclosed test compounds and controls (Staurosporine and Sutent) were prepared using the following assay buffer (50 mM Tris-HCl, 0.02 mg/ml BSA, 10 mM MgCl2, 0.1 mM Na3VO4, 1 mM EGTA, 75 μM ATP, 0.01% NP-40, 2 mM DTT in 10% glycerol/water) at 3× desired final concentration. 20 μl of the test compounds (or control) and 20 μl TEC (0.25 ng/μl) were rapidly added to a reaction plate. The plate was incubated for 30 minutes. 20 μl of Pyk-2 (0.5 ng/μl) was then added to the reaction plate. The plate was incubated at room temperature for two hours.
50 μl was transferred from the reaction plate to the streptavidin coated plate. The capture plate was incubated at room temperature for 30 minutes then washed with TBST 6 times. 100 μl/well of Cell Signaling anti-phospho tyrosine was added to the capture plate at a dilution of 1:3000 in 2% BSA/TBST. The plate was incubated for one hour at room temperature then washed with TBST 6 times. 100 μl/well of alkaline phosphatase tagged goat anti-mouse antibody was added to the capture plate at a dilution of 1:4000 in 2% BSA/TBST. The plate was incubated for one hour at room temperature then washed with TBST 6 times.
The fluorescent readout was initiated by the addition of 100 μl/well of Attophos reagent (6 mg/10 ml) and the reading was done on the Perkin Elmer Envision system.

DLD-1 = assay: MTS Assay (cell growth inhibition), DLD-1; format: cell-based; conditions: DLD-1 cells, 72 hours with test compound; concentration not given
Description: (§1) Cells were maintained at 37° C., 5% CO2 in DMEM media supplemented with 1% fetal bovine serum, penicillin/streptomycin and fungizone (Invitrogen). Cells were seeded into 96-well tissue culture plates at 3000 per well and cultured at 37° C. for 18 hours. Test compounds were dissolved and diluted to 300× in DMSO then diluted 1:40 in DMEM. Cells were incubated with test compounds for 72 hours followed by incubation with tetrazolium compound (3-(4,5-dimethylthiazol-2-yl)-5-(3-carboxymethoxyphenyl)-2-(4-sulfophenyl)-2H-tetrazolium, inner salt; MTS) and the electron coupling reagent, phenazine methosulfate (PMS) for 4 hours. […] The ability of compounds to inhibit cell growth in this assay is correlated with the reduction of dehydrogenase enzyme activity found in metabolically active cells. The measurement of the absorbance of the formazan was assessed using an ENVISION™ (Perkin Elmer) microplate reader at 492 nm. The calculated IC50 value is the concentration of the test compound that causes a 50% decrease in the absorbance.

Kato III = assay: MTS Assay (cell growth inhibition), Kato III; format: cell-based; conditions: Kato III cells, 72 hours with test compound; concentration not given
Description: as §1

MDA-MB 231 = assay: MTS Assay (cell growth inhibition), MDA-MB 231; format: cell-based; conditions: MDA-MB 231 cells, 72 hours with test compound; concentration not given
Description: as §1

NCI-H1299 = assay: MTS Assay (cell growth inhibition), NCI-H1299; format: cell-based; conditions: NCI-H1299 cells, 72 hours with test compound; concentration not given
Description: as §1

PACA-2 = assay: MTS Assay (cell growth inhibition), PACA-2; format: cell-based; conditions: PACA-2 cells, 72 hours with test compound; concentration not given
Description: as §1

PC-3 = assay: MTS Assay (cell growth inhibition), PC-3; format: cell-based; conditions: PC-3 cells, 72 hours with test compound; concentration not given
Description: as §1

- Biochemical IC50 (% inhibition) Tec (Tec kinase): B (B = 50-79% inhibition)
SMILES: CC(C)c1ccc(C2c3[nH]c4ccccc4c3CCN2c2ncnc3[nH]ncc23)cc1 (stereo not drawn) [Compound 21, 1-(4-isopropylphenyl)-2-(1H-pyrazolo[3,4-d]pyrimidin-4-yl)-2,3,4,9-tetrahydro-1H-beta-carboline]
- MTS cell kill data (% inhibition) DLD-1 (DLD-1): A (A = 80-100% inhibition)
- MTS cell kill data (% inhibition) Kato III (Kato III): A (A = 80-100% inhibition)
- MTS cell kill data (% inhibition) MDA-MB 231 (MDA-MB 231): A (A = 80-100% inhibition)
- MTS cell kill data (% inhibition) NCI-H1299 (NCI-H1299): A (A = 80-100% inhibition)
- MTS cell kill data (% inhibition) PACA-2 (PACA-2): A (A = 80-100% inhibition)
- MTS cell kill data (% inhibition) PC-3 (PC-3): B (B = 50-79% inhibition)

- Biochemical IC50 (% inhibition) Tec (Tec kinase): C (C = <50% inhibition)
SMILES: COc1ccc(C2c3[nH]c4ccccc4c3CCN2c2ncnc3[nH]ccc23)cc1OC (stereo not drawn) [Compound 22, 1-(3,4-dimethoxyphenyl)-2-(7H-pyrrolo[2,3-d]pyrimidin-4-yl)-2,3,4,9-tetrahydro-1H-beta-carboline]
- MTS cell kill data (% inhibition) DLD-1 (DLD-1): B (B = 50-79% inhibition)
- MTS cell kill data (% inhibition) Kato III (Kato III): B (B = 50-79% inhibition)
- MTS cell kill data (% inhibition) MDA-MB 231 (MDA-MB 231): C (C = <50% inhibition)
- MTS cell kill data (% inhibition) NCI-H1299 (NCI-H1299): B (B = 50-79% inhibition)
- MTS cell kill data (% inhibition) PACA-2 (PACA-2): B (B = 50-79% inhibition)
- MTS cell kill data (% inhibition) PC-3 (PC-3): C (C = <50% inhibition)

- Biochemical IC50 (% inhibition) Tec (Tec kinase): C (C = <50% inhibition)
SMILES: COc1ccc(C2c3[nH]c4ccccc4c3CCN2c2ncnc3[nH]cnc23)cc1OC (stereo not drawn) [Compound 23, 1-(3,4-dimethoxyphenyl)-2-(9H-purin-6-yl)-2,3,4,9-tetrahydro-1H-beta-carboline]
- MTS cell kill data (% inhibition) DLD-1 (DLD-1): B (B = 50-79% inhibition)
- MTS cell kill data (% inhibition) Kato III (Kato III): B (B = 50-79% inhibition)
- MTS cell kill data (% inhibition) MDA-MB 231 (MDA-MB 231): C (C = <50% inhibition)
- MTS cell kill data (% inhibition) NCI-H1299 (NCI-H1299): B (B = 50-79% inhibition)
- MTS cell kill data (% inhibition) PACA-2 (PACA-2): B (B = 50-79% inhibition)
- MTS cell kill data (% inhibition) PC-3 (PC-3): C (C = <50% inhibition)

- Biochemical IC50 (% inhibition) Tec (Tec kinase): B (B = 50-79% inhibition)
SMILES: c1ccc(C2c3[nH]c4ccccc4c3CCN2c2ncnc3[nH]ccc23)cc1 (stereo not drawn) [Compound 24, 1-phenyl-2-(7H-pyrrolo[2,3-d]pyrimidin-4-yl)-2,3,4,9-tetrahydro-1H-beta-carboline]
- MTS cell kill data (% inhibition) DLD-1 (DLD-1): B (B = 50-79% inhibition)
- MTS cell kill data (% inhibition) Kato III (Kato III): B (B = 50-79% inhibition)
- MTS cell kill data (% inhibition) MDA-MB 231 (MDA-MB 231): C (C = <50% inhibition)
- MTS cell kill data (% inhibition) NCI-H1299 (NCI-H1299): B (B = 50-79% inhibition)
- MTS cell kill data (% inhibition) PACA-2 (PACA-2): B (B = 50-79% inhibition)
- MTS cell kill data (% inhibition) PC-3 (PC-3): C (C = <50% inhibition)

- Biochemical IC50 (% inhibition) Tec (Tec kinase): C (C = <50% inhibition)
SMILES: c1ccc(C2c3[nH]c4ccccc4c3CCN2c2ncnc3[nH]cnc23)cc1 (stereo not drawn) [Compound 25, 1-phenyl-2-(9H-purin-6-yl)-2,3,4,9-tetrahydro-1H-beta-carboline]
- MTS cell kill data (% inhibition) DLD-1 (DLD-1): B (B = 50-79% inhibition)
- MTS cell kill data (% inhibition) Kato III (Kato III): B (B = 50-79% inhibition)
- MTS cell kill data (% inhibition) MDA-MB 231 (MDA-MB 231): C (C = <50% inhibition)
- MTS cell kill data (% inhibition) NCI-H1299 (NCI-H1299): B (B = 50-79% inhibition)
- MTS cell kill data (% inhibition) PACA-2 (PACA-2): B (B = 50-79% inhibition)
- MTS cell kill data (% inhibition) PC-3 (PC-3): C (C = <50% inhibition)

- Biochemical IC50 (% inhibition) Tec (Tec kinase): C (C = <50% inhibition)
SMILES: c1ccc(C2c3[nH]c4ccccc4c3CCN2c2ncnc3[nH]ncc23)cc1 (stereo not drawn) [Compound 26, 1-phenyl-2-(1H-pyrazolo[3,4-d]pyrimidin-4-yl)-2,3,4,9-tetrahydro-1H-beta-carboline]
- MTS cell kill data (% inhibition) DLD-1 (DLD-1): B (B = 50-79% inhibition)
- MTS cell kill data (% inhibition) Kato III (Kato III): B (B = 50-79% inhibition)
- MTS cell kill data (% inhibition) MDA-MB 231 (MDA-MB 231): C (C = <50% inhibition)
- MTS cell kill data (% inhibition) NCI-H1299 (NCI-H1299): B (B = 50-79% inhibition)
- MTS cell kill data (% inhibition) PACA-2 (PACA-2): B (B = 50-79% inhibition)
- MTS cell kill data (% inhibition) PC-3 (PC-3): C (C = <50% inhibition)

- Biochemical IC50 (% inhibition) Tec (Tec kinase): B (B = 50-79% inhibition)
SMILES: c1ccc(CCC2c3[nH]c4ccccc4c3CCN2c2ncnc3[nH]cnc23)cc1 (stereo not drawn) [Compound 27, 1-(2-phenylethyl)-2-(9H-purin-6-yl)-2,3,4,9-tetrahydro-1H-beta-carboline]
- MTS cell kill data (% inhibition) DLD-1 (DLD-1): A (A = 80-100% inhibition)
- MTS cell kill data (% inhibition) Kato III (Kato III): A (A = 80-100% inhibition)
- MTS cell kill data (% inhibition) MDA-MB 231 (MDA-MB 231): A (A = 80-100% inhibition)
- MTS cell kill data (% inhibition) NCI-H1299 (NCI-H1299): A (A = 80-100% inhibition)
- MTS cell kill data (% inhibition) PACA-2 (PACA-2): A (A = 80-100% inhibition)
- MTS cell kill data (% inhibition) PC-3 (PC-3): A (A = 80-100% inhibition)

- Biochemical IC50 (% inhibition) Tec (Tec kinase): C (C = <50% inhibition)
SMILES: Nc1nc(N2CCc3c([nH]c4ccccc34)C2CCc2ccccc2)c2nc[nH]c2n1 (stereo not drawn) [Compound 28, 6-[1-(2-phenylethyl)-1,3,4,9-tetrahydro-2H-beta-carbolin-2-yl]-9H-purin-2-amine]
- MTS cell kill data (% inhibition) DLD-1 (DLD-1): B (B = 50-79% inhibition)
- MTS cell kill data (% inhibition) Kato III (Kato III): C (C = <50% inhibition)
- MTS cell kill data (% inhibition) MDA-MB 231 (MDA-MB 231): C (C = <50% inhibition)
- MTS cell kill data (% inhibition) NCI-H1299 (NCI-H1299): B (B = 50-79% inhibition)
- MTS cell kill data (% inhibition) PACA-2 (PACA-2): C (C = <50% inhibition)
- MTS cell kill data (% inhibition) PC-3 (PC-3): C (C = <50% inhibition)

- Biochemical IC50 (% inhibition) Tec (Tec kinase): C (C = <50% inhibition)
SMILES: COc1ccc(C2c3[nH]c4ccccc4c3CCN2c2ncnc3[nH]cnc23)cc1 (stereo not drawn) [Compound 29, 1-(4-methoxyphenyl)-2-(9H-purin-6-yl)-2,3,4,9-tetrahydro-1H-beta-carboline]
- MTS cell kill data (% inhibition) DLD-1 (DLD-1): B (B = 50-79% inhibition)
- MTS cell kill data (% inhibition) Kato III (Kato III): B (B = 50-79% inhibition)
- MTS cell kill data (% inhibition) MDA-MB 231 (MDA-MB 231): C (C = <50% inhibition)
- MTS cell kill data (% inhibition) NCI-H1299 (NCI-H1299): B (B = 50-79% inhibition)
- MTS cell kill data (% inhibition) PACA-2 (PACA-2): B (B = 50-79% inhibition)
- MTS cell kill data (% inhibition) PC-3 (PC-3): C (C = <50% inhibition)

- Biochemical IC50 (% inhibition) Tec (Tec kinase): C (C = <50% inhibition)
SMILES: COc1ccc(C2c3[nH]c4ccccc4c3CCN2c2ncnc3[nH]ccc23)cc1 (stereo not drawn) [Compound 30, 1-(4-methoxyphenyl)-2-(7H-pyrrolo[2,3-d]pyrimidin-4-yl)-2,3,4,9-tetrahydro-1H-beta-carboline]
- MTS cell kill data (% inhibition) DLD-1 (DLD-1): B (B = 50-79% inhibition)
- MTS cell kill data (% inhibition) Kato III (Kato III): A (A = 80-100% inhibition)
- MTS cell kill data (% inhibition) MDA-MB 231 (MDA-MB 231): A (A = 80-100% inhibition)
- MTS cell kill data (% inhibition) NCI-H1299 (NCI-H1299): B (B = 50-79% inhibition)
- MTS cell kill data (% inhibition) PACA-2 (PACA-2): B (B = 50-79% inhibition)
- MTS cell kill data (% inhibition) PC-3 (PC-3): A (A = 80-100% inhibition)
